Assay results: US20230085307A1, “PYRIDAZINONE COMPOUND AND HERBICIDE” (NISSAN CHEMICAL CORPORATION, priority 2019, published 2023)

What was measured:
velvetleaf = test: Test Example 4: herbicidal effect by soil treatment (Table 19, symbol M); format: in vivo, velvetleaf (Abutilon theophrasti); details: amount of applied herbicide 320 g/ha
How it was run: (§1)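 Emulsion of test compound, water-diluted to predetermined amount, sprayed on soil after sowing (seed depth ~1.5 cm, sterilized diluvial soil). Greenhouse, 25–30° C. Effect graded at three weeks post-spray.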

lambsquarters = test: Test Example 5: herbicidal effect by foliage application, plastic box (Table 20, symbol O); format: in vivo, lambsquarters (Chenopodium album); details: foliage application, 320 g/ha, three weeks after application
How it was run: (§2)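 Post-emergence foliar test in sterilized diluvial soil. Compound applied as water-diluted emulsion at a predetermined rate to 14-day-old plants; evaluation at three weeks.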

persian speedwell [1] = test: Test Example 4: herbicidal effect by soil treatment (Table 19, symbol R); format: in vivo, Persian speedwell (Veronica persica); details: amount of applied herbicide 320 g/ha
How it was run: as §1

green foxtail = test: Test Example 4: herbicidal effect by soil treatment (Table 19, symbol G); format: in vivo, green foxtail (Setaria viridis); details: amount of applied herbicide 320 g/ha
How it was run: as §1

Japanese bulrush = test: Test Example 2: herbicidal activity, application during weed generation under submerged conditions (Table 17, symbol B); format: in vivo, Japanese bulrush (Schoenoplectus juncoides); details: AAH 320 g/ha; application during weed generation, submerged conditions
How it was run: (§3)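 Steps: fill Wagner pots with alluvial soil; add water to give 4 cm depth; sow the species mixed; grow under glass at 25–30° C.; at 1–2 leaves apply water-diluted emulsion formulation to the water surface at a fixed herbicide amount; score after 3 weeks.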

redroot pigweed [2] = test: Test Example 5: herbicidal effect by foliage application, plastic box (Table 20, symbol N); format: in vivo, redroot pigweed (Amaranthus retroflexus); details: foliage application, 320 g/ha, three weeks after application
How it was run: as §2

oval-leafed pondweed [3] = test: Test Example 1: herbicidal activity, application before weed generation under submerged conditions (Table 16, symbol C); format: in vivo, oval-leafed pondweed (Monochoria vaginalis); details: 320 g/ha applied herbicide
How it was run: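 Submerged Wagner pots (alluvial soil, 4 cm water) sown with weed seeds and planted with 2.5-leaf rice seedlings; emulsifiable concentrate diluted in water applied to water surface on sowing day. Held in greenhouse at 25-30 °C; injury scored 0-5 by herbicidal rate after three weeks.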

chickweed = test: Test Example 5: herbicidal effect by foliage application, plastic box (Table 20, symbol P); format: in vivo, common chickweed (Stellaria media); details: foliage application, 320 g/ha, three weeks after application
How it was run: as §2

redroot pigweed [4] = test: Test Example 4: herbicidal effect by soil treatment (Table 19, symbol N); format: in vivo, redroot pigweed (Amaranthus retroflexus); details: amount of applied herbicide 320 g/ha
How it was run: as §1

southern crabgrass = test: Test Example 5: herbicidal effect by foliage application, plastic box (Table 20, symbol F); format: in vivo, southern crabgrass (Digitaria ciliaris); details: foliage application, 320 g/ha, three weeks after application
How it was run: as §2

blackgrass = test: Test Example 4: herbicidal effect by soil treatment (Table 19, symbol J); format: in vivo, blackgrass (Alopecurus myosuroides); details: amount of applied herbicide 320 g/ha
How it was run: as §1

barnyard grass [5] = test: Test Example 3: herbicidal effect by foliage application, Wagner pot (Table 18, symbol H); format: in vivo, barnyard grass (Echinochloa crus-galli); details: 320 g/ha
How it was run: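 Plants were sown in alluvial soil held under 0.1–0.5 cm standing water and grown 14 days in a greenhouse at 25–30 °C. An emulsifiable formulation, water-diluted to the set dose, was then sprayed onto the foliage, and effects were scored three weeks later using previously defined criteria.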

barnyard grass [6] = test: Test Example 4: herbicidal effect by soil treatment (Table 19, symbol H); format: in vivo, barnyard grass (Echinochloa crus-galli); details: amount of applied herbicide 320 g/ha
How it was run: as §1

persian speedwell [7] = test: Test Example 5: herbicidal effect by foliage application, plastic box (Table 20, symbol R); format: in vivo, Persian speedwell (Veronica persica); details: foliage application, 320 g/ha, three weeks after application
How it was run: as §2

windgrass = test: Test Example 5: herbicidal effect by foliage application, plastic box (Table 20, symbol L); format: in vivo, windgrass (Apera spica-venti); details: foliage application, 320 g/ha, three weeks after application
How it was run: as §2

oval-leafed pondweed [8] = test: Test Example 2: herbicidal activity, application during weed generation under submerged conditions (Table 17, symbol C); format: in vivo, oval-leafed pondweed (Monochoria vaginalis); details: AAH 320 g/ha; application during weed generation, submerged conditions
How it was run: as §3

Row | SMILES | herbicidal effect rating, M: velvetleaf (velvetleaf) | herbicidal effect grade, O: lambsquarters (lambsquarters) | herbicidal effect rating, R: persian speedwell (persian speedwell [1]) | herbicidal effect rating, G: green foxtail (green foxtail) | herbicidal effect rating, B: Japanese bulrush (Japanese bulrush) | herbicidal effect grade, N: redroot pigweed (redroot pigweed [2]) | Herbicidal effect on C: oval-leafed pondweed (grade 0-5) (oval-leafed pondweed [3]) | herbicidal effect grade, P: chickweed (chickweed) | herbicidal effect rating, N: redroot pigweed (redroot pigweed [4]) | herbicidal effect grade, F: southern crabgrass (southern crabgrass) | herbicidal effect rating, J: blackgrass (blackgrass) | herbicidal effect on H (barnyard grass), rating 0-5 (barnyard grass [5]) | herbicidal effect rating, H: barnyard grass (barnyard grass [6]) | herbicidal effect grade, R: persian speedwell (persian speedwell [7]) | herbicidal effect grade, L: windgrass (windgrass) | herbicidal effect rating, C: oval-leafed pondweed (oval-leafed pondweed [8])
1 | Cc1nn(C)c(=O)c(-c2c(-c3ccccc3OC(F)(F)F)sc3ccccc23)c1O [1-030] | 3 (Herbicidal rate of 40% or more and less than 70%) | 5 (Herbicidal rate of 90% or more (almost completely withered)) | 5 (Herbicidal rate of 90% or more (almost completely withered)) | 4 (Herbicidal rate of 70% or more and less than 90%) | 3 (Herbicidal rate of 40% or more and less than 70%) | 5 (Herbicidal rate of 90% or more (almost completely withered)) | 4 (Herbicidal rate of 70% or more and less than 90%) | 5 (Herbicidal rate of 90% or more (almost completely withered)) | 5 (Herbicidal rate of 90% or more (almost completely withered)) | 5 (Herbicidal rate of 90% or more (almost completely withered)) | 1 (Herbicidal rate of 5% or more and less than 20%) | 5 (Herbicidal rate of 90% or more (almost completely withered)) | 4 (Herbicidal rate of 70% or more and less than 90%) | 5 (Herbicidal rate of 90% or more (almost completely withered)) | 5 (Herbicidal rate of 90% or more (almost completely withered)) | 3 (Herbicidal rate of 40% or more and less than 70%)
2 | CCCC(=O)Oc1c(C)nn(C)c(=O)c1-c1c(-c2ccc(C(C)=NOC)cc2)sc2ccccc12 [1-044] | 0 (Herbicidal rate of 5% or less (almost no effect)) | 4 (Herbicidal rate of 70% or more and less than 90%) | 5 (Herbicidal rate of 90% or more (almost completely withered)) | 4 (Herbicidal rate of 70% or more and less than 90%) | 3 (Herbicidal rate of 40% or more and less than 70%) | 5 (Herbicidal rate of 90% or more (almost completely withered)) | 5 (Herbicidal rate of 90% or more (almost completely withered)) | 5 (Herbicidal rate of 90% or more (almost completely withered)) | 4 (Herbicidal rate of 70% or more and less than 90%) | 4 (Herbicidal rate of 70% or more and less than 90%) | 0 (Herbicidal rate of 5% or less (almost no effect)) | 4 (Herbicidal rate of 70% or more and less than 90%) | 0 (Herbicidal rate of 5% or less (almost no effect)) | 5 (Herbicidal rate of 90% or more (almost completely withered)) | 3 (Herbicidal rate of 40% or more and less than 70%) | 1 (Herbicidal rate of 5% or more and less than 20%)
3 | Cc1cc(-c2sc3ccccc3c2-c2c(O)c(C)nn(C)c2=O)ccc1F [1-051] | 4 (Herbicidal rate of 70% or more and less than 90%) | 3 (Herbicidal rate of 40% or more and less than 70%) | 4 (Herbicidal rate of 70% or more and less than 90%) | 5 (Herbicidal rate of 90% or more (almost completely withered)) | 0 (Herbicidal rate of 5% or less (almost no effect)) | 5 (Herbicidal rate of 90% or more (almost completely withered)) | 0 (Herbicidal rate of 5% or less (almost no effect)) | 5 (Herbicidal rate of 90% or more (almost completely withered)) | 4 (Herbicidal rate of 70% or more and less than 90%) | 3 (Herbicidal rate of 40% or more and less than 70%) | 0 (Herbicidal rate of 5% or less (almost no effect)) | 4 (Herbicidal rate of 70% or more and less than 90%) | 3 (Herbicidal rate of 40% or more and less than 70%) | 5 (Herbicidal rate of 90% or more (almost completely withered)) | 4 (Herbicidal rate of 70% or more and less than 90%) | 0 (Herbicidal rate of 5% or less (almost no effect))
4 | CCOc1cc(F)ccc1-c1sc2ccccc2c1-c1c(O)c(C)nn(C)c1=O [1-061] | 0 (Herbicidal rate of 5% or less (almost no effect)) | 4 (Herbicidal rate of 70% or more and less than 90%) | 5 (Herbicidal rate of 90% or more (almost completely withered)) | 5 (Herbicidal rate of 90% or more (almost completely withered)) | 3 (Herbicidal rate of 40% or more and less than 70%) | 5 (Herbicidal rate of 90% or more (almost completely withered)) | 3 (Herbicidal rate of 40% or more and less than 70%) | 5 (Herbicidal rate of 90% or more (almost completely withered)) | 4 (Herbicidal rate of 70% or more and less than 90%) | 5 (Herbicidal rate of 90% or more (almost completely withered)) | 5 (Herbicidal rate of 90% or more (almost completely withered)) | 5 (Herbicidal rate of 90% or more (almost completely withered)) | 4 (Herbicidal rate of 70% or more and less than 90%) | 5 (Herbicidal rate of 90% or more (almost completely withered)) | 5 (Herbicidal rate of 90% or more (almost completely withered)) | 4 (Herbicidal rate of 70% or more and less than 90%)
5 | CCCC(=O)Oc1c(C)nn(C)c(=O)c1-c1c(-c2ccc(OC)c(OC)c2)sc2ccccc12 [1-073] | 4 (Herbicidal rate of 70% or more and less than 90%) | 5 (Herbicidal rate of 90% or more (almost completely withered)) | 5 (Herbicidal rate of 90% or more (almost completely withered)) | 5 (Herbicidal rate of 90% or more (almost completely withered)) | 5 (Herbicidal rate of 90% or more (almost completely withered)) | 5 (Herbicidal rate of 90% or more (almost completely withered)) | 0 (Herbicidal rate of 5% or less (almost no effect)) | 5 (Herbicidal rate of 90% or more (almost completely withered)) | 4 (Herbicidal rate of 70% or more and less than 90%) | 5 (Herbicidal rate of 90% or more (almost completely withered)) | 2 (Herbicidal rate of 20% or more and less than 40%) | 5 (Herbicidal rate of 90% or more (almost completely withered)) | 4 (Herbicidal rate of 70% or more and less than 90%) | 5 (Herbicidal rate of 90% or more (almost completely withered)) | 0 (Herbicidal rate of 5% or less (almost no effect)) | 5 (Herbicidal rate of 90% or more (almost completely withered))
